In patent publication EP0199291A1 (priority 1985, dated 1986):
Like-named read-outs stand apart in the source and are kept apart here.

Key:
[1] = tested on: con-A-aktivierte C3H Milzzellen; conditions: 9 x 10^-3 mol/l; Con A 5 µg/ml; 24 h (Fig. 5)
Method: (§1) Die IL 2 Titer wurden mit der IL 2 abhängigen W-2 T-Zelllinie in bekannter Weise bestimmt.
(§2) Die resultierenden Überstände wurden dann durch Zentrifugation isoliert und auf Interleukin-2 und Interferon- Aktivität getestet, wie im Methodenteil beschrieben.
Ansteigende Konzentrationen von Ornithin wurden Kulturen von con-A-aktivierten Konzentrationen von Ornithin C3H Milzzellen (10^7 Zellen + 5 µg con-A pro ml) zugesetzt. Die erhaltenen Überstände wurden 24 h später isoliert und auf Interleukin-2 und Interferonaktivität getestet.

[2] = tested on: PMA-aktivierte EL-4 Thymomzellen; conditions: same concentrations as in Fig. 5
Method: as §1
Die Überstände werden aus einer IL-2 produzierenden EL-4 Thymom-Sublinie nach Induktion mit Phorbolmyristinacetat (PMA) in bekannter Weise erhalten. Es wurden 10^6 EL-4 Zellen pro ml zusammen mit 10 ng/ml PMA (SIGMA) 48 h inkubiert. Die Überstände wurden gesammelt und bei -20°C gefroren gelagert.
as §2

[3] = tested on: IL 2 abhängige W-2 T-Zelllinie; conditions: control solutions with increasing amounts in culture medium
Method: as §1
Ansteigende Konzentrationen von Ornithin wurden Kulturen von con-A-aktivierten Konzentrationen von Ornithin C3H Milzzellen (10^7 Zellen + 5 µg con-A pro ml) zugesetzt. Die erhaltenen Überstände wurden 24 h später isoliert und auf Interleukin-2 und Interferonaktivität getestet. […] C3H Milzzellkulturen mit l ug/ml con-A sowie allogene "Genischte-Lymphozyten-Kulturen" mit 10^7 nicht-bestrahltenC3H Milzzellen' plus 10^7 nicht- bestrahltenC57BL/6 Milzzellen wurden eben- falls mit steigenden Konzentrationen von Ornithin angesetzt.

[4] = tested on: C57BL/6; conditions: Stimulans und Target C57BL/6, 1 x 10^-2 mol/l, 5 days
Method: (§3) 20 Millionen Responderzellen (üblicherweise C3H Milzzellen)wurden mit 1×10^6 bestrahlten (1500 rad) allogenen oder trinitrophenylierten syngenen Stimulatorzellen in einem Gesamtvolumen von 4,5 ml Kulturmedium (RPMI 1640, GIBCO Medium supplementiert mit 10mM L-Gutamin (GIBCO), Streptomycin/Penicillin (GIBCO), Streptomycin/ Penicillin (GIBCO; 100 units/ml), 0,5 % HEPES (GIBCO), 10% fötalem Kälberserum (GIBCO) und 3×10^-5 Mol/l 2-Mercaptoäthanol) 5 Tage bei 37°C in 5% CO2 incubiert. Responder-und Stimulatorzellen waren Milzzellen.
(§4) Die Kulturen wurden nach 5 Tagen auf cytotoxische Aktivität gegen Con A-aktivierte allogene oder trinitrophenylierte syngene Milzlynphoblasten in einem 4-Stunden 51Cr-Release assay in bekanntem Weise getestet.
(§5) Der Effekt in vitro (mittlere und rechte Zeichnung der Fig. 1) wurde wie folgt bestimmt: • C3H Milzzellen (2 x 10^7) wurden mit 1 x 10^6 bestrahlten und Trinitrophenylen-behandelten C3H Milzzellen (Mitte) oder 1 x 10^6 bestrahlte C57BL/6 Milzzellen (rechts) und mit den angegebenen Endkonzentrationen von Ornithin in 4,5 ml Kulturen 5 Tage inkubiert. Die cytotoxische Aktivität gegen die entsprechenden Targetzellen wurde nach 5 Tagen getestet.
(§6) C3H Milzzellen (2 x 10^7) wurden mit 1 x 10^6 bestrahlten und Trinitrophenylen-behandelten C3H Milzzellen (links) oder 1 x 10^6 bestrahlten C57BL/6 Milzzellen (rechts) in 4,5 ml Kulturen 5 Tage inkubiert. […] Die Abszisse zeigt die Endkonzentration von Ornithin in der Kultur. Die cytotoxische Aktivität gegen die entsprechenden Targetze1len wurde nach 5 Tagen bei Angreifer: Ziel-Zellen-Verhältnissen von 25:1, 5:1 und 1:1 untersucht. Figur 3 zeigt die relative cytotoxische Aktivität beim Angreifer: Ziel-Zellen-Verhältnis 25:1. (Die Kontrollantwort ohne Ornithin zeigte 54% (links) bzw. 50% (rechts) ^51Cr-release).
(§7) Die Ergebnisse geben die cytotoxische Aktivität (% ^51Cr-Freisetzung) gegen homologe Targetzellen nach 5 Tagen bei Angreifer:Targetzel len-Verältnissen von 25:1, 5:1 und 1:1 an.

[5] = tested on: TNP-C3H; conditions: for cytotoxische Aktivität (% 51Cr-Freisetzung): Stimulans und Target TNP-C3H, 1 x 10^-2 mol/l, 5 days
Method: as §3, §4, §5, §6, §7

[6] = Angreifer:Targetzellen 1:1, control without additive 4,8
[7] = Angreifer:Targetzellen 5:1, control without additive 17,7
[8] = Angreifer:Targetzellen 25:1, control without additive 33,5
[9] = Angreifer:Targetzellen 1:1, control without additive 16,3
[10] = Angreifer:Targetzellen 5:1, control without additive 32,0
[11] = Angreifer:Targetzellen 25:1, control without additive 54,9
[12] = summary statement, see Tabelle I

| SMILES | cytotoxische Aktivität (% 51Cr-Freisetzung) [4, 6] | cytotoxische Aktivität (% 51Cr-Freisetzung) [4, 7] | cytotoxische Aktivität (% 51Cr-Freisetzung) [4, 8] | cytotoxische Aktivität (% 51Cr-Freisetzung) [5, 9] | cytotoxische Aktivität (% 51Cr-Freisetzung) [5, 10] | cytotoxische Aktivität (% 51Cr-Freisetzung) [5, 11] | Hemmwirkung auf die Aktivierung cytotoxischer T-Lymphozyten [5, 12] | Hemmwirkung auf die Aktivierung cytotoxischer T-Lymphozyten [5] | other results |
| --- | --- | --- | --- | --- | --- | --- | --- | --- | --- |
| NCCC[C@H](N)C(=O)O [L-Ornithin] |  |  |  |  |  |  |  |  | Effekt auf die Produktion von IL-2 [1]: keinen wesentlichen Effekt; Interleukin-2-Produktion von PMA-aktivierten EL-4 Thymomzellen [2]: nicht supprimiert; Interleukin-2-Aktivität (of the substance itself) [3]: keine Interleukin-2 oder Interferon-Aktivität |
| N[C@@H](Cc1c[nH]cn1)C(=O)O [L-Hystidin, L-Histidin] | 5,1% | 11,4% | 24,5% | 11,1% | 27,8% | 48,5% | nicht zu beobachten |  |  |
| NCCCC[C@H](N)C(=O)O [L-Lysin] | 9,0% | 19,1% | 41,7% | 21,5% | 39,9% | 60,7% | nicht zu beobachten |  |  |
| C[C@H](N)C(=O)O [L-Alanin] |  |  |  |  |  |  |  | nicht zu beobachten |  |
| NCCCCN [Putrescin] |  |  |  |  |  |  |  | nicht zu beobachten |  |
